“Also recorded” adds a separate entry of the source.
What was measured:
[1] = tested on: indomethacin-induced gastrointestinal damage; test: Combined live Bifidobacterium and betaine in indomethacin-challenged rats, damage area (Experiment 4); type: in vivo, rat; details: Experiment 4, indomethacin-challenged male Wistar rats; Bifidobacterium 10^10 and betaine 200 mg daily per animal; preliminary investigations
Procedure: Male Wistar rats as described previously in Experiment 3 above are split into the following treatment groups: a control, an indomethacin challenge group as a control, and treatment groups 3-5, which receive intervention treatment by live Bifidobacterium (10^10 daily dose per animal) and betaine (200 mg of daily dose per animal) either separately or in combination. Damage is determined from the sacrificed rats only.

[2] = tested on: indomethacin-induced gastrointestinal damage; test: Rat model of indomethacin-induced gastrointestinal damage, damage area (Experiment 3); type: in vivo; details: male Wistar rats
Excerpt: (§1) A previously described rat model was used to study indomethacin-induced gastrointestinal damage (see Meddings and Gibbons, Gastroenterology 1998; 114:83-92). Briefly, male Wistar rats were used and ten rats were included in each treatment group. Five different treatments were included: control group with no indomethacin treatment, indomethacin control group with no intervention treatment, indomethacin with 10^8 Bifidobacterium per rat, indomethacin with 10^10 Bifidobacterium per rat, and indomethacin with betaine (200 mg/rat). A single dose of indomethacin (10 mg/kg) was given p.o. preceded by a seven-day intervention with or without Bifidobacterium or betaine. In addition, a mixture of sucrose, lactulose, mannitol and sucralose was given p.o to measure gastrointestinal (GI) permeability. Urine samples were obtained at 16 hours after the challenge with indomethacin and prior to sacrificing the animals. Mucosa of the stomach and the intestine were examined by a pathologist and tissue samples of healthy-appearing mucosa for RNA isolation were collected from stomach, proximal and distal small intestine, caecum and proximal and distal colon. RNA was isolated and expression of cyclooxygenase-1 and -2 (COX-1 and COX-2, respectively) were determined by QPCR.

[3] = tested on: gastrointestinal (GI) permeability; test: Gastrointestinal permeability, urine concentrations of marker sugars in indomethacin-challenged rats (Experiment 3); type: in vivo, rat; details: male Wistar rats, single dose 10 mg/kg p.o., urine at 16 hours
Excerpt: as §1

[4] = tested on: cyclooxygenase 2 gene expression in Caco2 cells; test: Caco-2 cell-based exposure test, Cox-2 gene expression (Experiment 1: selected metabolites and co-cultured bacterium); design: species or system human; details: 24 hour treatment, metabolites 5 mM, bacterium co-cultured in membrane insert
Procedure: (§2) The human colorectal carcinoma cell line Caco-2 was grown at 37° C. and 5% CO2 in serum-free Dulbeccos' MEM (Gibco) supplemented with 1 mM sodium pyruvate (Gibco) and 1× non-essential amino acids (Gibco) (DMEM). When grown without added bacteria, 20 Uml^−1 penicillin (Gibco), 20 μgml^−1 streptomycin (Gibco) and 0.5 μgml^−1 amphotericin (Gibco) were added to the medium. Bifidobacterium sp. 420 was grown anaerobically for 48 hours at 37° C. in a BIF medium consisting of 10 gl^−1 tryptic digest of casein peptone; 5 gl^−1 meat extract; 5 gl^−1 yeast extract; 10 gl^−1 glucose; 3 gl^−1 K2HPO4; 0.1% (volume/volume) Tween 80; 1% ascorbic acid and 0.05% cysteine-HCl; pH 6.8. 2 ml of logarithmic phase culture was centrifuged at 4000 rpm for 3 minutes. The cell pellet was suspended in 1.6 ml DMEM. The production of short chain organic acids by the bacterium was tested from fresh and conditioned bifidobacterium medium using gas chromatography.
(§3) To determine the effects of various treatments on the Cox-1/Cox-2 expression pattern, approximately 500 000 Caco-2 cells/well were seeded on 24-well cell culture plates. The cells were allowed to attach for 24 hours, after which the media were replaced by fresh media (total volume 1 ml/well) containing either no other added components than the ones described above (control treatments, with and without antibiotics) or antibiotic supplemented media with 5 mM sodium butyrate; 5 mM sodium propionate; 5 mM sodium acetate or 5 mM sodium lactate. In addition, wells were prepared that contained no antibiotics but a 0.2 μm anopore membrane tissue culture insert (Nunc, Denmark) into which 100 μl of the bacterial suspension described above was added.
(§4) After 24 hour exposure, media and culture inserts were discarded, cells were lysed and RNA was extracted using Qiagen's (Germany) RNEasy Mini Kit DNA was digested using the same manufacturer's RNase free DNase. Reverse transcription was performed using the High Capacity cDNA Archive Kit (Applied Biosystems, USA) according to the instructions provided by the manufacturer. Cox-1/Cox-2 expression patterns were determined by real-time quantitative TaqMan PCR (Holland et al., 1991 Proc. Natl. Acad. Sci. USA August 15; 88(16): 7276-80; and Livak and Scmittgen, 2001 Methods December; 25(4):402-8) using the default settings of an ABIPrism 7000 Sequence Detection instrument (Applied Biosystems).

[5] = tested on: cyclooxygenase 1 gene expression in Caco2 cells; test: Caco-2 cell-based exposure test, Cox-1 gene expression (Experiment 1: selected metabolites and co-cultured bacterium); design: species or system human; details: 24 hour treatment, metabolites 5 mM, bacterium co-cultured in membrane insert
Procedure: as §2, with “The production of short chain organic acids by the bacterium was tested from fresh and conditioned bifidobacterium medium using gas chromatography.” left out
as §4, with “Reverse transcription was performed using the High Capacity cDNA Archive Kit (Applied Biosystems, USA) according to the instructions provided by the manufacturer.” left out

[6] = tested on: Cox-2 expression; details: according to prior art; cited from earlier work
[7] = tested on: Cox-1/Cox-2 expression pattern in Caco-2 cells; test: Cox-1/Cox-2 ratio and expression pattern in Caco-2 cells; type: cell-based, human; details: Experiment 1, Caco-2 cells, 24 hour exposure
Procedure: as §3, with “In addition, wells were prepared that contained no antibiotics but a 0.2 μm anopore membrane tissue culture insert (Nunc, Denmark) into which 100 μl of the bacterial suspension described above was added.” left out
as §4, with “Reverse transcription was performed using the High Capacity cDNA Archive Kit (Applied Biosystems, USA) according to the instructions provided by the manufacturer.” left out
Two bifidobacteria (Bifidobacterium sp. 420 and Bifidobacterium longum 913) were cultured as described in Experiment 1. […] Bacterial growth was stopped by chilling confluent cultures on ice, after which cell densities were determined by flow cytometry (FACS Calibur, Becton Dickinson). […]

| Compound | Cox-2 gene expression level, fold change in relation to the control [4] [fold change] | Cox-1 gene expression level, fold change in relation to the control [5] [fold change] | effect on Cox-2 expression [6] | Cox-1/Cox-2 ratio / expression pattern (FIG. 1) [7] | other results |
| --- | --- | --- | --- | --- | --- |
| C[N+](C)(C)CC(=O)[O-] [Betaine, trimethylglycine] |  |  |  |  | damage area in the gastrointestinal tract [1]: tends to decrease; pathological damage area ([2]; seven-day intervention, then indomethacin 10 mg/kg p.o.): tendency to decrease; also recorded: somewhat reduced |
| COc1ccc2c(c1)c(CC(=O)O)c(C)n2C(=O)c1ccc(Cl)cc1 [Indomethacin, indomethacin] |  |  |  |  | urine concentrations of marker sugars after the challenge [3]: significant increase; gross pathological changes (ulceration) ([2]; single dose 10 mg/kg p.o.): induced ulceration mainly to fundic stomach, but also to pyloric stomach |
| CC(=O)[O-].[Na+] [acetate, sodium acetate] | 1.17 | 2.08 |  |  |  |
| CCCC(=O)[O-].[Na+] [butyrate, sodium butyrate] | 0.15 |  | lowering effect | increase |  |
| CC(O)C(=O)[O-].[Na+] (centres unmarked) [lactate, sodium lactate] | 0.74 | 0.91 |  |  |  |
| CCC(=O)[O-].[Na+] [propionate, sodium propionate] | 0.36 |  | lowering effect | increase |  |

— patent publication US20080038228A1, “Method” (Danisco A/S, priority 2003, published 2008)
